From US4599333A, “Hydrazinopyridazine compound, process for production thereof, and use thereof as medicament” (Teikoku Hormone Mfg. Co., Ltd., priority 1984, dated 1986)

Columns and labels:
Assay type in all cases: in vivo, male Wistar rats
β1-adrenoceptors = target: T1, β1-adrenoceptors (Rattus norvegicus, UniProt P18090); test: β1-adrenoceptor blocking action (inhibition of increase in heart rate exerted by isoproterenol) and selectivity for β1-adrenoceptors; settings: blocking activity ratio from ID50 doses; Table 2
T1 construct: Experiments were done using male Wistar rats; from tissue; host or cells: whole anesthetized male Wistar rat (in vivo; heart rate)
T1 sequence (P18090 whole entry): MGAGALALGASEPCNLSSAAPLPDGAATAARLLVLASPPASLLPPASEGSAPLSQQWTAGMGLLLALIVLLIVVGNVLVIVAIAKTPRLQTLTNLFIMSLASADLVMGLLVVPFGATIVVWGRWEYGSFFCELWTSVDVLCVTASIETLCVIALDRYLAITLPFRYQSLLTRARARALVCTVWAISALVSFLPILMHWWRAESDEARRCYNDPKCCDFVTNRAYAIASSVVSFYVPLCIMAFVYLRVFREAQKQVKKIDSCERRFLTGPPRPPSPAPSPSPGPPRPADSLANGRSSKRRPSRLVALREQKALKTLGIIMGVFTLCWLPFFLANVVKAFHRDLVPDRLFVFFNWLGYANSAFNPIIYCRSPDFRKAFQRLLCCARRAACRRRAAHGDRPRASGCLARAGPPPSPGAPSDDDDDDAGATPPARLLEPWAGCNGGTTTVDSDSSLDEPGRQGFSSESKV
Method: (§1) Experiments were done using male Wistar rats weighing between 300 and 400 g, anesthetized with sodium pentobarbital (60 mg/kg i.p.). The blood pressure was directly measured by connecting a cannula inserted in the femoral artery to a pressure transducer and the heart rate was calculated from the pulse waves of the blood pressure tracings. Each value shown here was obtained from three animals. The test compounds were individually dissolved in physiological saline solution or a 0.01N aqueous solution of hydrochloric acid.
(§2) (1) Measurement of β-adrenoceptor blocking activity
The increased heart rate before injection of the test compound was represented by H1. Three minutes after i.v. injection of the test compound, isoproterenol (0.1 μg/kg i.v.) was again administered and then the change in heart rate was measured. The maximum increase in heart rate after injection of the test compound was designated as H2. From these values, the percent inhibition of the change in heart rate was calculated in accordance with the following equation.
(§3) By repeating the procedure mentioned above at various doses of the test compounds, dose-response curves were prepared.

β2 = target: T2, β2 (Rattus norvegicus, UniProt P10608); test: β2-adrenoceptor blocking action (inhibition of fall in blood pressure exerted by isoproterenol); settings: iv, 50% inhibition of fall in blood pressure by isoproterenol 0.1 μg/kg i.v., Table 2, read-out: β-adrenoceptor blocking action ID50 β2
T2 construct: Experiments were done using male Wistar rats; from tissue; host or cells: whole anesthetized male Wistar rat (in vivo; arterial blood pressure)
T2 sequence (P10608 whole entry): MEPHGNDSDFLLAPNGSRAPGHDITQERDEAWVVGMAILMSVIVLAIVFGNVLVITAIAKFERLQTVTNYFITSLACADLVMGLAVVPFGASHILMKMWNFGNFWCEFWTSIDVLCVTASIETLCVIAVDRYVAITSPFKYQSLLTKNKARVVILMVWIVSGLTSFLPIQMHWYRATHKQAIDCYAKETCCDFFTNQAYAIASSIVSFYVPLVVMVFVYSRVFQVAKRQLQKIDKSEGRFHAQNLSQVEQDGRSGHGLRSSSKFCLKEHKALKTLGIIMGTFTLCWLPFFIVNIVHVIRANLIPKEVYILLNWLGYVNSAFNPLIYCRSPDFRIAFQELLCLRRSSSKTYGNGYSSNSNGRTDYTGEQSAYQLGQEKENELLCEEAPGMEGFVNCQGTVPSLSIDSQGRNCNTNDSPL
Method: as §1, §2, §3

heart rate = test: Heart rate increase produced by isoproterenol; settings: single i.v. injection 0.1 μg/kg, before test compound
Method: Experiments were done using male Wistar rats weighing between 300 and 400 g, anesthetized with sodium pentobarbital (60 mg/kg i.p.). The blood pressure was directly measured by connecting a cannula inserted in the femoral artery to a pressure transducer and the heart rate was calculated from the pulse waves of the blood pressure tracings. Each value shown here was obtained from three animals. The test compounds were individually dissolved in physiological saline solution or a 0.01N aqueous solution of hydrochloric acid. A single intravenous (i.v.) injection of isoproternol (0.1 μg/kg) produced an increase in heart rate by approximately 90 beats/min. The increased heart rate before injection of the test compound was represented by H1. Three minutes after i.v. injection of the test compound, isoproterenol (0.1 μg/kg i.v.) was again administered and then the change in heart rate was measured. The maximum increase in heart rate after injection of the test compound was designated as H2. From these values, the percent inhibition of the change in heart rate was calculated in accordance with the following equation.

Compound	Selectivity for β1-adrenoceptors (β1/β2) (β1-adrenoceptors)	ED50 (β2) [mg/kg]	increase in heart rate (heart rate)
Cc1ccccc1OCC(O)CNC(C)(C)COc1ccc(NN)nn1 (stereo not drawn) [C, 1-(2-methylphenoxy)-3-[1,1-dimethyl-2-(3-hydrazino-6-pyridazinyloxy)ethylamino]-2-propanol]	30	0.45	
CC(C)(COc1ccc(NN)nn1)NCC(O)COc1ccccc1Cl (stereo not drawn) [B, 1-(2-chlorophenoxy)-3-[1,1-dimethyl-2-(3-hydrazino-6-pyridazinyloxy)ethylamino]-2-propanol]	29	0.23	
CC(C)NCC(O)COc1ccc(CC(N)=O)cc1 (stereo not drawn) [Atenolol, reference compound]	30	1.5	
Cc1ccc(C#N)c(OCC(O)CNC(C)(C)COc2ccc(NN)nn2)c1 (stereo not drawn) [K, 1-(2-cyano-5-methylphenoxy)-3-[1,1-dimethyl-2-(3-hydrazino-6-pyridazinyloxy)ethylamino]-2-propanol]	2	0.1	
C#Cc1ccccc1OCC(O)CNC(C)(C)COc1ccc(NN)nn1 (stereo not drawn) [R, 1-(2-ethinylphenoxy)-3-[1,1-dimethyl-2-(3-hydrazino-6-pyridazinyloxy)ethylamino]-2-propanol]	> 5		
CC(C)NCC(O)c1ccc(O)c(O)c1 (stereo not drawn) [isoproternol, isoproterenol]			approximately 90 beats/min
CC(C)(COc1ccc(NN)nn1)NCC(O)COc1ccccc1C#N (stereo not drawn) [Compound I, 1-(2-cyanophenoxy)-3-[1,1-dimethyl-2-(3-hydrazino-6-pyridazinyloxy)ethylamino]-2-propanol]	5	0.1	
